Reference: publication PMC7562955 (Nature Communications, 2020)

Target: T1, human TLR9 (Homo sapiens, UniProt Q9NR96)
T1 construct: host or cells: HEK293 (TLR9/NF-κB/SEAPorter)
T1 sequence (Q9NR96 26-1032): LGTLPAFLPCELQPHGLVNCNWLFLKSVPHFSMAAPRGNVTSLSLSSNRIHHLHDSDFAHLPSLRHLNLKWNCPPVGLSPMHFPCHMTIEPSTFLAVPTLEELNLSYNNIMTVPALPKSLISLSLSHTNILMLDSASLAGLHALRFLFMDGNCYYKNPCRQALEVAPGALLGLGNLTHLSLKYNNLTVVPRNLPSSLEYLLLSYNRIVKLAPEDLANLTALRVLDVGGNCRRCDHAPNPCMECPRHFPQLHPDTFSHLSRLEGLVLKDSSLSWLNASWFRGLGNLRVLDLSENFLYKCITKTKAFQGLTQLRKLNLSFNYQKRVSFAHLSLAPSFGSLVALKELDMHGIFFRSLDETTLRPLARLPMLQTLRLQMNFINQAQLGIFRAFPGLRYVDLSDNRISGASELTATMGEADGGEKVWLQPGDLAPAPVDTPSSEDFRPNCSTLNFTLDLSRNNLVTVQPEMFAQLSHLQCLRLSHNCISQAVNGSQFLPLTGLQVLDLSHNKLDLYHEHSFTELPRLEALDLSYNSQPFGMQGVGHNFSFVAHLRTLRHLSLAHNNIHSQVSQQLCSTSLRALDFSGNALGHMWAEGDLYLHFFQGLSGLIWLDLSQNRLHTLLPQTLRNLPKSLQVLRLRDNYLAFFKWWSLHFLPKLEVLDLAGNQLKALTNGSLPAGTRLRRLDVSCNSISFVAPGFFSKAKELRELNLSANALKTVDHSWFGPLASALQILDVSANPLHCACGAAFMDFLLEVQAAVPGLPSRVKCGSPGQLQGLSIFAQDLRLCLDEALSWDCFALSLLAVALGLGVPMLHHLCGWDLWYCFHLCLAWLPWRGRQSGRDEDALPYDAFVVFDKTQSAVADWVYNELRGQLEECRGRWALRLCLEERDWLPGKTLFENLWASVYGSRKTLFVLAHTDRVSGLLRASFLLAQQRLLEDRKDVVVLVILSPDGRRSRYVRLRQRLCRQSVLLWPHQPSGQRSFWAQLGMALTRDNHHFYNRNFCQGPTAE
Assay: Human TLR9 reporter gene inhibitory activity assay (NF-κB/SEAP HEK293)
Format: cell-based
Settings: for human TLR9 activity, reporter signal: CpG2006 500 nM
Procedure: Compounds were dissolved in dimethyl sulfoxide. Before stimulation with compound, Human TLR7 reporter cell line (TLR7/NF-κB/SEAPorter^TM HEK293 cell, Novus Biological, USA), human TLR8 reporter cell line (TLR8/NF-κB/SEAPorter^TM HEK293 cell, Novus Biological), and human TLR9 reporter cell line (TLR9/NF-κB/SEAPorter^TM HEK293 cell, Novus Biological) were seeded in 96-well microtiter plate (AGC techno glass, Japan) at 5 × 10^4 cells/well in DMEM (GIBCO, United Kingdam) with 10 % fetal bovine serum (GIBCO), and 10 ug/ml Blastcidin S HCl (GIBCO) and incubated at 37 °C in 5% CO2. The plates were incubated over-night and then stimulated with various concentrations of compound. […] After 30 min, R848 (human TLR7/8 ligand, synthesized at Sumitomo Dainippon Pharma, Japan) or CpG2006 (human TLR9 ligand, Hokkaido System Science Co., Ltd., Japan) added to each well, wherein each final concentration were adjusted to 200 nM R848 (human TLR7), 30 μM R848 (human TLR8), or 500 nM CpG2006 (human TLR9). The plates were then incubated an additional 20 ± 1 h at 37 °C in 5% CO2 and then the secreted embryonic alkaline phosphatase (SEAP) activity was measured as activation of human TLR7, 8, and 9. The SEAP activity was evaluated as follows: pNPP (Invitrogen, USA) was added to the incubated sample (50 μl/well); after 15 min, 4 M sodium hydroxide solution (nacalai tesque, Japan) was added thereto (50 μl/well) to quench the reaction; and the absorbance of each sample was measured at 405 nm with microplate reader SpectraMax M4 (Molecular Devices, USA).

Row | inhibition of TLR9 | SMILES | human TLR9 activity, reporter signal (compound 0.0001 nM (as headed)) | human TLR9 activity, reporter signal (compound 0.001 nM (as headed)) | human TLR9 activity, reporter signal (compound 0.003 nM (as headed)) | human TLR9 activity, reporter signal (compound 0.01 nM (as headed)) | human TLR9 activity, reporter signal (compound 0.03 nM (as headed)) | human TLR9 activity, reporter signal (compound 0.1 nM (as headed)) | human TLR9 activity, reporter signal (compound 0.3 nM (as headed)) | human TLR9 activity, reporter signal (compound 1 nM (as headed)) | human TLR9 activity, reporter signal (compound 3 nM (as headed)) | human TLR9 activity, reporter signal (compound 10 nM (as headed)) | human TLR9 activity, reporter signal (compound 30 nM (as headed)) | human TLR9 activity, reporter signal (compound 100 nM (as headed))
1 | without causing any inhibition | CCCCOc1nc(N)c2nc(-c3cccnc3)n(Cc3ccccc3)c2n1 [Cpd-5] | 0.3823 | 0.4021 | 0.4541 | 0.4157 | 0.4224 | 0.4068 | 0.4193 | 0.3613 | 0.3381 | 0.3129 | 0.2475 | 0.2357
2 |  | CCOc1nc(N)c2nc(-c3cncc(F)c3)n(Cc3ccc(CN4C[C@@H]5C[C@H]4CN5C)cc3)c2n1 [Cpd-6] | 0.3816 | 0.371 | 0.3771 | 0.3689 | 0.3826 | 0.3836 | 0.372 | 0.3752 | 0.3176 | 0.265 | 0.06893 | 0.01837
3 |  | CCOc1nc(C)c2nc(-c3cncc(F)c3)n(Cc3ccc(CN4C[C@@H]5C[C@H]4CN5C)cc3)c2n1 [Cpd-7] | 0.3816 | 0.3944 | 0.4214 | 0.4209 | 0.4048 | 0.3963 | 0.3799 | 0.3655 | 0.3183 | 0.2034 | 0.05003 | -0.002975
4 |  | CCN(CCO)CCCC(C)Nc1ccnc2cc(Cl)ccc12 (centres unmarked) [HCQ, hydroxychloroquine, reference compound] | 0.3549 |  |  | 0.3663 | 0.3271 | 0.2912 | 0.1984 | 0.0758 | 0.0184 | -0.013 | -0.01145 | -0.00085
